From patent EP2582674B1 (Cymabay Therapeutics, Inc., priority 2010, dated 2011)

Target: T1, human GPR120 (Homo sapiens, UniProt Q5NUL3)
T1 construct: host or cells: HEK293 cells co-expressing Gqi5
T1 sequence (Q5NUL3 1-361): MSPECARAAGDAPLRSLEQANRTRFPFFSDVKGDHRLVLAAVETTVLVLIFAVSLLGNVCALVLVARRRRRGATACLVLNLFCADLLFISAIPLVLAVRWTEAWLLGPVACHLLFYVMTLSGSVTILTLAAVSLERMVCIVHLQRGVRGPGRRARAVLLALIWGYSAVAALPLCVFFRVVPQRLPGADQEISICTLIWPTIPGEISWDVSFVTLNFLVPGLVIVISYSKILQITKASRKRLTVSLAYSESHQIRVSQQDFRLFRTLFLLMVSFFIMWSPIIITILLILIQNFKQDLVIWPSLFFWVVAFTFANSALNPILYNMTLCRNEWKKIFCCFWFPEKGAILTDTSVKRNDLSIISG
Assay: Intracellular Ca2+ assay in human GPR120 stable cell line (FLIPR Calcium 4 dye, Flexstation)
Format: cell-based
Details: % activity at 2.5 µM compared to the maximal activity of the compound of Example 25 at 2.5 µM (=100%); HEK293 cells co-expressing Gqi5
Description: Human GPR120 stable cell line was purchased from Multispan Inc (26219 Eden Landing Road, Hayward, CA94545). This GPR120 cell line was generated in HEK293 cells co-expressing Gqi5. In this cell line, the Flag epitope tag (DYKDDDDK) was fused to the amino terminus of human GPR120 protein.
The concentration of intracellular Ca^2+ was measured as described below. Human GPR120 cells were plated in 96 well plates (Poly-D-Lysine coated black/clear Plate, Greiner Bio-One) at 70,000 cells per well and cultured overnight in conditions of 37°C and 5% CO2. A Ca^2+ assay dye stock solution was prepared by adding 10 mL of assay buffer (HBSS/20mM HEPES, pH 7.4) to FLIPR Calcium 4 Assay Bulk Kit (Molecular Devices). The 10 mL of Ca^2+ assay dye solution was prepared by further diluting 0.5 mL of Ca^2+ assay dye stock solution with 10 mL of assay buffer. The medium of the cells was removed and immediately 100 µL of the Ca^2+ assay dye solution was dispensed into each well followed by incubation at 37°C and 5% CO2 for 50 minutes to incorporate the Ca^2+ dye into the cells. The cell plate was then placed in the Flexstation (Molecular Devices) for 20 minutes at 37°C. Compounds were dissolved in 100% DMSO and diluted to desired concentrations with assay buffer and placed in the Flexstation simultaneously with the cell plate for 20 minute incubation at 37°C prior to reading. Fluorescence intensity was measured immediately following compound addition (25 µL/well) on the Flexstation at an excitation wavelength of 485 nm and an emission wavelength of 525 with 515 nm auto cutoff. The resulting increase in fluorescence intensities corresponds to increases in intracellular Ca^2+ levels.
Compounds were dissolved in 100% DMSO to a concentration of 20 mM to provide stock solutions. To determine activity against human GPR120, compounds were added with human GPR120 stably expressing cells (described above), at eight desired concentrations ranging from 0.00001 to 20 µM, in 96 well plates and fluorescence intensities were measured for 90 seconds with 2-second intervals. An EC50 value (concentration of the GPR120 agonist where 50% of the agonist's maximal activity is observed) was calculated using the changes (Max-Min) of fluorescence intensity.
To determine percent activity for a tested compound, the fluorescence intensity value obtained at a particular concentration were compared to the maximal fluorescence intensity value obtained for reference compound GW9508 (4-[[(3-phenoxyphenyl)methyl]amino]benzene propanoic acid; British Journal of Pharmacology 2006 148, 619-628) or the compound of Example 25. When GW9508 was used as the reference compound, the maximal activity of GW9508 at 6.7µM was designated as 100% activity. When the compound of Example 25 was used as the reference compound, the maximal activity of the compound of Example 25 at 2.5 µM was designated as 100% activity. Typically, the GW9508 activity reached a maximum at a concentration of approximately 6.7 µM and typically the compound of Example 25 reached a maximum activity at approximately 2.5µM. […]

| % Activity (Ex. 25 Reference Compound) [%] | Compound |
| --- | --- |
| 130.66 | CC1(C)Cc2cc(F)cc(COc3c(F)cc(CC4CC4C(=O)O)cc3F)c2O1 (single isomer, unassigned) [Example 184B, 2-(3,5-difluoro-4-((5-fluoro-2,2-dimethyl-2,3-dihydrobenzofuran-7-yl)methoxy)benzyl)cyclopropanecarboxylic acid] |
| 158.08 | 2-(4-((5-fluoro-3H-spiro[benzofuran-2,1'-cyclopentane]-7-yl)methoxy)phenyl)cyclopropanecarboxylic acid [Example 165] |
| 97.04 | CC1(C)Cc2cc(F)cc(COc3c(F)cc(CC4CC4C(=O)O)cc3F)c2O1 (centres unmarked) [Example 184, 2-(3,5-difluoro-4-((5-fluoro-2,2-dimethyl-2,3-dihydrobenzofuran-7-yl)methoxy)benzyl)cyclopropanecarboxylic acid] |

Same assay, conditions: HEK293, % activity at 2.5 µM compared to the maximal activity of the compound of Example 25 at 2.5 µM (=100%); HEK293 cells co-expressing Gqi5; read-out: % Activity (Ex. 25 Reference Compound)

| Compound | activity at 2.5 µM [%] |
| --- | --- |
| CC(Cc1ccc(COc2cccc3c2OC(C)(C)C3)c(F)c1)C(=O)O (centres unmarked) [Example 44, 3-(4-(((2,2-dimethyl-2,3-dihydrobenzofuran-7-yl)oxy)methyl)-3-fluorophenyl)-2-methylpropanoic acid] | 157 |
| CC1(C)Cc2cc(Cl)cc(COc3c(F)cc(C4CC4CC(=O)O)cc3F)c2O1 (centres unmarked) [Example 41, 2-(2-(4-((5-chloro-2,2-dimethyl-2,3-dihydrobenzofuran-7-yl)methoxy)-3,5-difluorophenyl)cyclopropyl)acetic acid] | 116 |
| Cc1cc2c(OCc3cc(F)cc4c3OC(C)(C)C4)ccc(CCC(=O)O)c2o1 [Example 125, 3-(4-((5-fluoro-2,2-dimethyl-2,3-dihydrobenzofuran-7-yl)methoxy)-2-methylbenzofuran-7-yl)propanoic acid] | 32.6 |
| CC1(C)Cc2cc(F)cc(COc3ccc(CCC(=O)O)c(OC(F)(F)F)c3)c2O1 [Example 136, 3-(4-((5-fluoro-2,2-dimethyl-2,3-dihydrobenzofuran-7-yl)methoxy)-2-(trifluoromethoxy)phenyl)propanoic acid] | 141 |
| CCN(CC)c1cc(COc2ccc(CC(C)C(=O)O)cc2)c2c(c1)CC(C)(C)O2 (centres unmarked) [Example 89, 3-(4-((5-(diethylamino)-2,2-dimethyl-2,3-dihydrobenzofuran-7-yl)methoxy)phenyl)-2-methylpropanoic acid] | 82.3 |
| CC(CC(=O)O)Cc1ccc(OCc2cc(F)cc3c2OC(C)(C)C3)cc1 (centres unmarked) [Example 182, 4-(4-((5-fluoro-2,2-dimethyl-2,3-dihydrobenzofuran-7-yl)methoxy)phenyl)-3-methylbutanoic acid] | 98.4 |
| CC1(C)Cc2cc(Cl)cc(COc3ccccc3CCC(=O)O)c2O1 [Example 250, 3-(2-((5-chloro-2,2-dimethyl-2,3-dihydrobenzofuran-7-yl)methoxy)phenyl)propanoic acid] | 10.2 |
| CC(Cc1cc(F)c(OCc2cccc3cn[nH]c23)c(F)c1)C(=O)O (centres unmarked) [Example 260, 3-(4-((1H-indazol-7-yl)methoxy)-3,5-difluorophenyl)-2-methylpropanoic acid] | 16.7 |
| CC1(C)Cc2cc(F)cc(COc3ccc4c(CC(=O)O)coc4c3)c2O1 [Example 262, 2-(6-((5-fluoro-2,2-dimethyl-2,3-dihydrobenzofuran-7-yl)methoxy)benzofuran-3-yl)acetic acid] | 137 |
| CC(C)Oc1ncccc1COc1ccc2c(c1)CCC2CC(=O)O (centres unmarked) [Example 259, 2-(5-((2-isopropoxypyridin-3-yl)methoxy)-2,3-dihydro-1H-inden-1-yl)acetic acid] | 118 |
| CC(Cc1ccc(OCc2cc(OC(F)(F)F)cc3c2OC(C)(C)C3)cc1)C(=O)O (centres unmarked) [Example 124, 3-(4-((2,2-dimethyl-5-(trifluoromethoxy)-2,3-dihydrobenzofuran-7-yl)methoxy)phenyl)-2-methylpropanoic acid] | 132 |
| Cc1cc(OCC(=O)O)ccc1OCc1cc(Cl)cc2c1OC(C)(C)C2 [Example 103, 2-(4-((5-chloro-2,2-dimethyl-2,3-dihydrobenzofuran-7-yl)methoxy)-3-methylphenoxy)acetic acid] | 99 |

More lines, now with the values ahead:

| activity at 2.5 µM [%] | Compound |
| --- | --- |
| 104 | Cc1cc2cc(Cl)cc(COc3ccc(CC(C)C(=O)O)cc3F)c2o1 (centres unmarked) [Example 120, 3-(4-((5-chloro-2-methylbenzofuran-7-yl)methoxy)-3-fluorophenyl)-2-methylpropanoic acid] |
| 160 | [2H]C([2H])(C(=O)O)C([2H])([2H])c1ccc(OCc2cc(Cl)cc3c2OC(C)(C)C3)c(F)c1 [Example 241, 3-(4-((5-chloro-2,2-dimethyl-2,3-dihydrobenzofuran-7-yl)methoxy)-3-fluorophenyl)-2,2,3,3-tetradeuteriopropanoic acid] |
| 104 | CC1(C)Cc2cc(F)cc(COc3ccc(C4CC4C(=O)O)cc3)c2O1 (centres unmarked) [Example 131A, 2-(4-((5-fluoro-2,2-dimethyl-2,3-dihydrobenzofuran-7-yl)methoxy)phenyl) cyclopropanecarboxylic acid] |
| 146 | CCc1cc(OCc2cccc3c2CC(C)(C)O3)ccc1CCC(=O)O [Example 140, 3-(4-((2,2-dimethyl-2,3-dihydrobenzofuran-4-yl)methoxy)-2-ethylphenyl)propanoic acid] |
| 143 | Cc1cc(OCc2cc(F)cc3c2OC(C)(C)C3)c(F)cc1CCC(=O)O [Example 214, 3-(5-fluoro-4-((5-fluoro-2,2-dimethyl-2,3-dihydrobenzofuran-7-yl)methoxy)-2-methylphenyl)propanoic acid] |
| 69 | CC(Cc1ccc(NC(=O)c2cc(F)cc3c2OC(C)(C)C3)cc1)C(=O)O (centres unmarked) [Example 68, 3-(4-(5-fluoro-2,2-dimethyl-2,3-dihydrobenzofuran-7-carboxamido)phenyl)-2-methylpropanoic acid] |
| 109 | Cc1nc2cccc(COc3c(F)cc(CC(C)C(=O)O)cc3F)c2o1 (centres unmarked) [Example 261, 3-(3,5-difluoro-4-((2-methylbenzo[d]oxazol-7-yl)methoxy)phenyl)-2-methylpropanoic acid] |

Same assay, conditions: HEK293, % activity at 5 µM compared to the maximal activity of GW9508 at 6.7 µM (=100%); HEK293 cells co-expressing Gqi5; read-out: %Activity (GW9508 Reference Compound)

| activity at 5 µM [%] | Compound |
| --- | --- |
| 150 | CC1(C)Cc2c(C(F)(F)F)ccc(COc3c(F)cc(C4CC4C(=O)O)cc3F)c2O1 (centres unmarked) [Example 31, 2-(4-((2,2-dimethyl-4-(trifluoromethyl)-2,3-dihydrobenzofuran-7-yl)methoxy)-3,5-difluorophenyl)cyclopropanecarboxylic acid] |
| 116 | CC(Cc1ccc(OCc2cc(Cl)cc3c2OC(C)(C)C3)c(Cl)c1)C(=O)O (centres unmarked) [Example 12, 3-(3-chloro-4-((5-chloro-2,2-dimethyl-2,3-dihydrobenzofuran-7-yl)methoxy)phenyl)-2-methylpropanoic acid] |
| 102 | CC1(C)Cc2cccc(COc3c(F)cc(CCC(=O)O)cc3F)c2O1 [Example 25, 3-(4-((2,2-dimethyl-2,3-dihydrobenzofuran-7-yl)methoxy)-3,5-difluorophenyl)propanoic acid] |

Same assay, conditions: eight concentrations from 0.00001 to 20 µM; changes (Max-Min) of fluorescence intensity

| EC50 [µM] | Compound |
| --- | --- |
| 1 to 10 | CC(Cc1ccc(COc2cccc3c2OC(C)(C)C3)c(F)c1)C(=O)O (centres unmarked) [Example 44, 3-(4-(((2,2-dimethyl-2,3-dihydrobenzofuran-7-yl)oxy)methyl)-3-fluorophenyl)-2-methylpropanoic acid] |
| > 10 | CC1(C)Cc2cc(Cl)cc(COc3ccccc3CCC(=O)O)c2O1 [Example 250, 3-(2-((5-chloro-2,2-dimethyl-2,3-dihydrobenzofuran-7-yl)methoxy)phenyl)propanoic acid] |
| ≤ 1 | CC(Cc1ccc(OCc2cc(OC(F)(F)F)cc3c2OC(C)(C)C3)cc1)C(=O)O (centres unmarked) [Example 124, 3-(4-((2,2-dimethyl-5-(trifluoromethoxy)-2,3-dihydrobenzofuran-7-yl)methoxy)phenyl)-2-methylpropanoic acid] |

Same assay, conditions: typical value, reference compounds of the Ca2+ assay

| concentration at which activity reached a maximum | Compound |
| --- | --- |
| approximately 2.5 µM | CC1(C)Cc2cccc(COc3c(F)cc(CCC(=O)O)cc3F)c2O1 [Example 25, 3-(4-((2,2-dimethyl-2,3-dihydrobenzofuran-7-yl)methoxy)-3,5-difluorophenyl)propanoic acid] |
